Measurements as given in patent publication US9402925B2, “Probes and methods of imaging a bacterial infection” (The Board of Trustees of the Leland Stanford Junior …, priority 2013, dated 2016).
“Also recorded” adds a separate entry of the source. Read-outs that look alike come from different tables or passages of the source. Blank lines part the entries; values can stand above or below the compound they belong to.

Experiments:
E-.Coli (ATCC33456) [1] = assay: In vitro uptake assay in E. coli; type: cell-based, Escherichia coli; conditions: radioactivity by gamma counter, CPM, FIG. 2.3
Procedure: (§1) A strain of E-.Coli (ATCC33456) and a mammalian cell line (EL4) were exposed to 1-[^18F]-fluoromaltose or [^18F]-6-fluoromaltose. All bacteria and cells were then washed in 1×PBS, lysed and radioactivity of each well was determined by gamma counter for ^18F samples. All results were done in triplicate and are expressed in counts per minute (CPM), standard errors were determined and t tests performed. The uptake in E. Coli could also be blocked by co-incubation with 1 mM of cold maltose or 1 mM of 1-fluoromaltose.
(§2) To evaluate the ability of bacteria and cells to uptake [^18F]-6-fluoromaltose (7) and 1-[^18F]-fluoromaltose (11), a strain of E. Coli and a mammalian cell line (EL4) were exposed to 7 and 11. […] The uptake in E. Coli could also be blocked by co-incubation with 1 mM of cold maltose (98% blocking, p<0.0003), the natural substrate of the transporter. Likewise, ^3H-maltose uptake in E. Coli was blocked both with 1 mM maltose and 1-fluoromaltose (FIG. 2.4).

[2] = PBS, human and mouse serum at 37° C.
Procedure: Serum (human or mouse) was centrifuged at about 4° C., maximum speed for about 10 min. About 330 μL of supernatant was transferred to an Eppendorf vial containing 20 μL of formulated radiolabelled 6-[^18F]fluoromaltose (50-100 μCi minimum). For control, same volume of radiolabelled compound in 330 μl PBS was used. After vortexing the radiolabelled mixtures, 70 μL aliquots transferred to Eppendorf tubes and incubated at about 37° C. At predetermine time points (e.g., 0, 5, 15, 30, 60 min) 140 μL of ice-cold methanol were added to corresponding samples to stop metabolism. After vortexing and centrifuging samples (10 min max speed), the supernatants were transferred to HPLC vials for HPLC analysis.
The percentage of intact 6-[^18F]fluoromaltose in PBS, human and mouse serum at 37° C. was determined by HPLC.

[3] = tested on: mammalian cell line (EL4); assay: In vitro uptake assay in mammalian cell line EL4; type: cell-based; conditions: 60 minutes post incubation with tracer
Procedure: as §1, §2

E-.Coli (ATCC33456) [4] = assay: Competition assay: blocking of 18F-fluoromaltose uptake in E. coli by co-incubation; type: cell-based, Escherichia coli; conditions: co-incubation with 1 mM
Procedure: as §1, §2

Escherichia coli = assay: Competition assay: blocking of 3H-maltose uptake by E. coli; type: cell-based; conditions: co-incubation, 1 mM; 3H-labeled maltose uptake for 10 mins; FIG. 2.4
Procedure: Coli and a mammalian cell line (EL4) were exposed to [^18F] 7. […] 7 by E. […] The uptake in E. Coli could also be blocked by co-incubation with 1 mM of cold maltose (98% blocking, p<0.0003), the natural substrate of the transporter. […] Here we allowed bacteria to take up ^3H-labeled maltose for 10 mins.

[5] = In vivo stability of 1-[18F]fluoromaltose

- percentage intact 6-[18F]fluoromaltose ([2]; 1 h): ~96%
- percentage intact 6-[18F]fluoromaltose ([2]; 2 h): ~65%
SMILES: OC[C@H]1O[C@H](O[C@H]2[C@H](O)[C@@H](O)C(O)O[C@@H]2C[18F])[C@H](O)[C@@H](O)[C@@H]1O (stereo partly drawn) [6-[^18F]-fluoromaltose, 4-O-(α-D-glucopyranosyl)-6-deoxy-6-[^18F]-fluoro-D-glucopyranoside]
- uptake by E. Coli (E-.Coli (ATCC33456) [1]): take up
- uptake by E. Coli (E-.Coli (ATCC33456) [1]; listed as [^18F]-6-fluoromaltose): time dependent
- uptake by mammalian cell line (EL4) [3]: minimal

SMILES: OC[C@H]1O[C@H](O[C@H]2[C@H](O)[C@@H](O)C(F)O[C@@H]2CO)[C@H](O)[C@@H](O)[C@@H]1O (stereo partly drawn) [1-fluoromaltose]
- blocking of 18F-fluoromaltose uptake in E. Coli (E-.Coli (ATCC33456) [4]): blocked
- blocking of 3H-maltose uptake in E. Coli (Escherichia coli): completely blocked; also recorded: effectively compete

SMILES: OC[C@H]1O[C@H](O[C@H]2[C@H](O)[C@@H](O)C(O)O[C@@H]2CO)[C@H](O)[C@@H](O)[C@@H]1O (mixture of isomers) [maltose]
- blocking of 18F-fluoromaltose uptake in E. Coli (E-.Coli (ATCC33456) [4]): completely blocked
- blocking of [18F]-6-fluoromaltose uptake in E. Coli (E-.Coli (ATCC33456) [4]; p<0.0003): 98%
- blocking of 3H-maltose uptake in E. Coli (Escherichia coli): completely blocked; also recorded: effectively compete

- uptake of [18F]fluoride ion by the bones ([5]; after de-fluorination): very high
SMILES: OC[C@H]1O[C@H](O[C@H]2[C@H](O)[C@@H](O)C([18F])O[C@@H]2CO)[C@H](O)[C@@H](O)[C@@H]1O (stereo partly drawn) [1-[^18F]-fluoromaltose, 4-O-(α-D-glucopyranosyl)-1-deoxy-1-[^18F]-fluoro-D-glucopyranoside]
- stability in vivo (de-fluorination) [5]: not stable in vivo and very fast de-fluorinated
